Like-named read-outs stand apart in the source and are kept apart here.
Legend:
Assay in all cases: Kinase binding screen
Conditions in all cases: read-out: Percent Control at 100 nM Compound Concentration
FGFR1 = FGFR1 (Homo sapiens (Human), UniProt P11362)
EPHA2 = EPHA2 (Homo sapiens (Human), UniProt P29317)
CLK1 = CLK1 (Homo sapiens (Human), UniProt P49759)
GCN2(Kin.Dom.2,S808G) = GCN2(Kin.Dom.2,S808G) (Homo sapiens (Human), UniProt Q9P2K8, S808G)
KIT-autoinhibited = KIT-autoinhibited (Homo sapiens (Human), UniProt P10721)
MTOR = MTOR (Homo sapiens (Human), UniProt P42345)
PIK3CG = PIK3CG (Homo sapiens (Human), UniProt P48736)
NDR1 = NDR1 (Homo sapiens (Human), UniProt Q15208)
CDK8 = CDK8 (Homo sapiens (Human), UniProt P49336)
PIK3CA(H1047L) = PIK3CA(H1047L) (Homo sapiens (Human), UniProt P42336, H1047L)
BMPR1A = BMPR1A (Homo sapiens (Human), UniProt P36894)
KIT(V559D,V654A) = KIT(V559D,V654A) (Homo sapiens (Human), UniProt P10721, V559D/V654A)
TRKB = TRKB (Homo sapiens (Human), UniProt Q16620)
CAMK2B = CAMK2B (Homo sapiens (Human), UniProt Q13554)
PIK3CA(E542K) = PIK3CA(E542K) (Homo sapiens (Human), UniProt P42336, E542K)
[1] = molecular target: EGFR(L747-E749del, A750P) (Homo sapiens (Human), UniProt P00533, A750P/DEL747-749)
YANK2 = YANK2 (Homo sapiens (Human), UniProt Q9NY57)
CAMK1B = CAMK1B (Homo sapiens (Human), UniProt Q6P2M8)
SNRK = SNRK (Homo sapiens (Human), UniProt Q9NRH2)
FGFR3 = FGFR3 (Homo sapiens (Human), UniProt P22607)
STK35 = STK35 (Homo sapiens (Human), UniProt Q8TDR2)
PRKD3 = PRKD3 (Homo sapiens (Human), UniProt O94806)
JNK2 = JNK2 (Homo sapiens (Human), UniProt P45984)
SGK = SGK (Homo sapiens (Human), UniProt O00141)
MEK3 = MEK3 (Homo sapiens (Human), UniProt P46734)
TAOK3 = TAOK3 (Homo sapiens (Human), UniProt Q9H2K8)
PIK3C2G = PIK3C2G (Homo sapiens (Human), UniProt O75747)
PRKCE = PRKCE (Homo sapiens (Human), UniProt Q02156)
PRKCE, sequence (Q02156 whole entry): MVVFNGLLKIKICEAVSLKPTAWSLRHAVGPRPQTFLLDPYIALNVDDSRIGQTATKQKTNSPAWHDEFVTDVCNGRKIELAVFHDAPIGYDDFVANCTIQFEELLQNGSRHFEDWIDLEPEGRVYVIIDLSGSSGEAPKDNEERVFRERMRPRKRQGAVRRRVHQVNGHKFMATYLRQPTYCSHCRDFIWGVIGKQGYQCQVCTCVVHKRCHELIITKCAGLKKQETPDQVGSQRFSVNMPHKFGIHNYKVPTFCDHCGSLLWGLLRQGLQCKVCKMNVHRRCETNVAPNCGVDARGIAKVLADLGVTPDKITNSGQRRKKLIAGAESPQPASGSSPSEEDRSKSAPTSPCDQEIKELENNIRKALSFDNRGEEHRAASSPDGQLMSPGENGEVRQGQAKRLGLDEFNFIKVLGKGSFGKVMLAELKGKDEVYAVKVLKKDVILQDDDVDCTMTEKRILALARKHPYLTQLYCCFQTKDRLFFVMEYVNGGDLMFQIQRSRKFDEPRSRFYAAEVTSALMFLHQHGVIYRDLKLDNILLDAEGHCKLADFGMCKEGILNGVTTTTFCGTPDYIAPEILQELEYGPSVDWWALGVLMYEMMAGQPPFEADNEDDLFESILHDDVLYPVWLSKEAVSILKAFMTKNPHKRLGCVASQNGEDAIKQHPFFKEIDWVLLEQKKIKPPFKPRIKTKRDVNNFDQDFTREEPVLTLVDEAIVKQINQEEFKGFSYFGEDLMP

YANK2, sequence (Q9NY57 whole entry): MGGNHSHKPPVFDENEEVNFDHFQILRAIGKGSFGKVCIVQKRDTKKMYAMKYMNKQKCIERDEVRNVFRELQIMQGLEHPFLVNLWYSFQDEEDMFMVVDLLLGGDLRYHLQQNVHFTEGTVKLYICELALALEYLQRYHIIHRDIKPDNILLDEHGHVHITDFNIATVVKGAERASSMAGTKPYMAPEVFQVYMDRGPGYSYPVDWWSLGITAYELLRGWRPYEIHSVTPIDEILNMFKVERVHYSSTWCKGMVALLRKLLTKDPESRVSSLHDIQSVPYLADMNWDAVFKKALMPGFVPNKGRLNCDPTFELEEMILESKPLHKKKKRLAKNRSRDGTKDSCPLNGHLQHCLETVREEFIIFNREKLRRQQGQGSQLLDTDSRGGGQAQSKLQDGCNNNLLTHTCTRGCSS
GCN2(Kin.Dom.2,S808G), sequence (Q9P2K8 590-1001 S808G): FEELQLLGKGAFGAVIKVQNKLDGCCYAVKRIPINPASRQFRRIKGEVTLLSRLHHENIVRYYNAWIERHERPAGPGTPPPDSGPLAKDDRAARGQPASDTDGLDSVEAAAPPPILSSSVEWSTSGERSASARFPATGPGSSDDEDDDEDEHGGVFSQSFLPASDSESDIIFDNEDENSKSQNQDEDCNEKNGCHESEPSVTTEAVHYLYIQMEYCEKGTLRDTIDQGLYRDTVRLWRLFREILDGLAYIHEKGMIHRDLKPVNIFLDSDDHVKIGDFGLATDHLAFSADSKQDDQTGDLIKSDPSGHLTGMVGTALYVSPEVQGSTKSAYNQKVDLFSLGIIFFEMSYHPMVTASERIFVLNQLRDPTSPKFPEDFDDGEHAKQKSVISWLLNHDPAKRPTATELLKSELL
NDR1, sequence (Q15208 whole entry): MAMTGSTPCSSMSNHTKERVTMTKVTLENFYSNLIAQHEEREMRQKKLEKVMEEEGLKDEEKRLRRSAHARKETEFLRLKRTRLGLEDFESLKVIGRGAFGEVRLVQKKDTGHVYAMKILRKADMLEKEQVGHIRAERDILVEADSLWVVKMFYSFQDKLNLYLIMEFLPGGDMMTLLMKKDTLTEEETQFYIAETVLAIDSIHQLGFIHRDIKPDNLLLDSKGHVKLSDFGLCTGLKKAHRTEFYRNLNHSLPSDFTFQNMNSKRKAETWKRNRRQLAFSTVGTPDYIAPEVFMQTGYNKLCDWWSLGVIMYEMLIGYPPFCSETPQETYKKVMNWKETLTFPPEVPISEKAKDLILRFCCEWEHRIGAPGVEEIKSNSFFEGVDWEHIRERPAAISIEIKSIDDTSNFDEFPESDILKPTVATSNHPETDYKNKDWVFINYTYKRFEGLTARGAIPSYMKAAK
TRKB, sequence (Q16620 32-822): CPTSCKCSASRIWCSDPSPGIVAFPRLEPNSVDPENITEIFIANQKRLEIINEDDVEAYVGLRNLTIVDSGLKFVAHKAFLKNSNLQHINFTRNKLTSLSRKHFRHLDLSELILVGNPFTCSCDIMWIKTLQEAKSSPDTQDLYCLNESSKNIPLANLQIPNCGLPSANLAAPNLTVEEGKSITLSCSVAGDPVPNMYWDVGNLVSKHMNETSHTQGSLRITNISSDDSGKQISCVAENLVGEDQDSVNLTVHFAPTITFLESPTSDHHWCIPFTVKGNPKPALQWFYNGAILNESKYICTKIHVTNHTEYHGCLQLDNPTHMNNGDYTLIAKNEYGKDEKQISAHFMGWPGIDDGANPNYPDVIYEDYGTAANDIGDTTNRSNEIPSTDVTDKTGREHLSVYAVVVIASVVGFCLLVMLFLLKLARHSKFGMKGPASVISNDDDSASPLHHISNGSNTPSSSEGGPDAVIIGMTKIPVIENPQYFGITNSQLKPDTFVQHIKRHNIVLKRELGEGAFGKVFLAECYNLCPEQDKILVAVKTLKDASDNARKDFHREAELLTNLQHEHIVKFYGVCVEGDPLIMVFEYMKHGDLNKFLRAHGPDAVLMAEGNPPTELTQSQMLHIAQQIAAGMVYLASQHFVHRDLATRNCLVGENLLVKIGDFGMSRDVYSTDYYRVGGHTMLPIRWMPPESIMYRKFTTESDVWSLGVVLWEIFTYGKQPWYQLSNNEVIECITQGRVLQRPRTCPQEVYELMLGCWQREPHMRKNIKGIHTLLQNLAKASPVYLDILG
FGFR3, sequence (P22607 23-806): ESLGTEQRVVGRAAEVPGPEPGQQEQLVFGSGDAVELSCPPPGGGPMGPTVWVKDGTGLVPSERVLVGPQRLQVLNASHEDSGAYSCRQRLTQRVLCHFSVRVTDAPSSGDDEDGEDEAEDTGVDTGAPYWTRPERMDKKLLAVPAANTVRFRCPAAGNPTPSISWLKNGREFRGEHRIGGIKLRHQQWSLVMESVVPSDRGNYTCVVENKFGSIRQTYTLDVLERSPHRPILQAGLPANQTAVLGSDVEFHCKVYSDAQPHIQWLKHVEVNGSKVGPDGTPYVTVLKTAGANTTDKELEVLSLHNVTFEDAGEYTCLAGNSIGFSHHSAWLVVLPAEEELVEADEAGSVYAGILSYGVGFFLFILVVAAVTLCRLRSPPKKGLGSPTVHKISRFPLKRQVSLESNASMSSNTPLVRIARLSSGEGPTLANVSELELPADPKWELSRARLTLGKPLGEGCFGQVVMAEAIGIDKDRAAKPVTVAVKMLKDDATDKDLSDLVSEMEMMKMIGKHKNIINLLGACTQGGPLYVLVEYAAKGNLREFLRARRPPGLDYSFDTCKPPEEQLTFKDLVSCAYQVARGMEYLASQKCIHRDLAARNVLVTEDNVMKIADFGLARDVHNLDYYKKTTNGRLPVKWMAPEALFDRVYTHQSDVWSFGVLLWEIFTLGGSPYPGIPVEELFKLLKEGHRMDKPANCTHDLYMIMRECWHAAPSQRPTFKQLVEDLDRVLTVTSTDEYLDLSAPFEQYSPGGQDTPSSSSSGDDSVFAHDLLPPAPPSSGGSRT
SNRK, sequence (Q9NRH2 whole entry): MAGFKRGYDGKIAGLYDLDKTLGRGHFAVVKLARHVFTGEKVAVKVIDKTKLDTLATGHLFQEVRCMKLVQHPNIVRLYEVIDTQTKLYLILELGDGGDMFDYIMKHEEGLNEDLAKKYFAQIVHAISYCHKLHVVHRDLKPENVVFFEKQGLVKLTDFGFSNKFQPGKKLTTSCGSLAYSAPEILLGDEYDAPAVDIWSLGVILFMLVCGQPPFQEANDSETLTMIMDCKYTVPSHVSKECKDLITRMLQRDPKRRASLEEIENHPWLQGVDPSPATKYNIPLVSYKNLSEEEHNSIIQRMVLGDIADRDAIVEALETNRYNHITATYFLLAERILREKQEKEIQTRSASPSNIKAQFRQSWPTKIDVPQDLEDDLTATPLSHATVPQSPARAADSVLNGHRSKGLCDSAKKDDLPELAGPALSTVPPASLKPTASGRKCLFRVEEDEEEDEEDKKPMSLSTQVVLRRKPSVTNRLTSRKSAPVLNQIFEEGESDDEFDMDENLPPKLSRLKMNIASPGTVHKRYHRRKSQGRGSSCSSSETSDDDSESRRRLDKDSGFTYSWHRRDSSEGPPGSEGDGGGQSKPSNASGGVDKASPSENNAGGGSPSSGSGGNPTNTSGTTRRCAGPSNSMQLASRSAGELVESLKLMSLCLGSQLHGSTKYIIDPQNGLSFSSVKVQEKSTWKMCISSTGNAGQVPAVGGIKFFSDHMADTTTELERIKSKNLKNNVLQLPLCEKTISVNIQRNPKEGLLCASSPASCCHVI
CAMK2B, sequence (Q13554 whole entry): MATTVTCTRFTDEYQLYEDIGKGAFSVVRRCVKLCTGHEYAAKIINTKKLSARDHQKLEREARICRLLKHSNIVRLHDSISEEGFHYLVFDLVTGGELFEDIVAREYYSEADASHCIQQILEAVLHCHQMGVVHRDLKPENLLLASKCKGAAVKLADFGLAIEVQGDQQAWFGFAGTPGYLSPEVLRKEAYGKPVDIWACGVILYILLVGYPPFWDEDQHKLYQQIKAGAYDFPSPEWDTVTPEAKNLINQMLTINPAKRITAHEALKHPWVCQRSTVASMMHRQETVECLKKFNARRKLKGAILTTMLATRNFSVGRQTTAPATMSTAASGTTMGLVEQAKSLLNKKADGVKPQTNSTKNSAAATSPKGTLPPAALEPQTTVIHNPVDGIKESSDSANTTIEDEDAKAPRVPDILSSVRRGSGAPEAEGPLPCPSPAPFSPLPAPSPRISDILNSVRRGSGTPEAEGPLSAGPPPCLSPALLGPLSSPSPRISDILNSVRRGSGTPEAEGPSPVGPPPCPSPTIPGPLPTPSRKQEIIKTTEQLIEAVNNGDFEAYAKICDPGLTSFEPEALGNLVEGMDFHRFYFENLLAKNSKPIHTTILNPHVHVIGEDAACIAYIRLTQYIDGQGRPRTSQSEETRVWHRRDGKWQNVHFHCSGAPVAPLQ

Structure (SMILES): CN(C[C@@H](O)Cc1ccccc1)C(=O)c1cncc(C#Cc2cnn(C(F)F)c2)c1 [Example 2, (S)-5-((1-(difluoromethyl)-1H-pyrazol-4-yl)ethynyl)-N-(2-hydroxy-3-phenylpropyl)-N-methylnicotinamide]
- remaining activity at 0.1 µM (FGFR1; FGFR1): 94%
- remaining activity at 0.1 µM (EPHA2; EPHA2): 100%
- remaining activity at 0.1 µM (CLK1; CLK1): 100%
- remaining activity at 0.1 µM (GCN2(Kin.Dom.2,S808G); GCN2(Kin.Dom.2,S808G)): 95%
- remaining activity at 0.1 µM (KIT-autoinhibited; KIT-autoinhibited): 94%
- remaining activity at 0.1 µM (MTOR; MTOR): 73%
- remaining activity at 0.1 µM (PIK3CG; PIK3CG): 100%
- remaining activity at 0.1 µM (NDR1; NDR1): 100%
- remaining activity at 0.1 µM (CDK8; CDK8): 10%
- remaining activity at 0.1 µM (PIK3CA(H1047L); PIK3CA(H1047L)): 85%
- remaining activity at 0.1 µM (BMPR1A; BMPR1A): 86%
- remaining activity at 0.1 µM (KIT(V559D,V654A); KIT(V559D,V654A)): 94%
- remaining activity at 0.1 µM (TRKB; TRKB): 100%
- remaining activity at 0.1 µM (CAMK2B; CAMK2B): 100%
- remaining activity at 0.1 µM (PIK3CA(E542K); PIK3CA(E542K)): 89%
- remaining activity at 0.1 µM ([1]; EGFR(L747-E749del, A750P)): 100%
- remaining activity at 0.1 µM (YANK2; YANK2): 100%
- remaining activity at 0.1 µM (CAMK1B; CAMK1B): 82%
- remaining activity at 0.1 µM (SNRK; SNRK): 100%
- remaining activity at 0.1 µM (FGFR3; FGFR3): 100%
- remaining activity at 0.1 µM (STK35; STK35): 99%
- remaining activity at 0.1 µM (PRKD3; PRKD3): 100%
- remaining activity at 0.1 µM (JNK2; JNK2): 91%
- remaining activity at 0.1 µM (SGK; SGK): 96%
- remaining activity at 0.1 µM (MEK3; MEK3): 94%
- remaining activity at 0.1 µM (TAOK3; TAOK3): 92%
- remaining activity at 0.1 µM (PIK3C2G; PIK3C2G): 85%
- remaining activity at 0.1 µM (PRKCE; PRKCE): 72%

Structure (SMILES): CN(C[C@H](Cc1ccccc1)OP(=O)(O)O)C(=O)c1cncc(C#Cc2cnn(C(F)F)c2)c1 [Example 19, (S)-1-(5-((1-(difluoromethyl)-1H-pyrazol-4-yl)ethynyl)-N-methylnicotinamido)-3-phenylpropan-2-yl dihydrogen phosphate]
- remaining activity at 0.1 µM (FGFR1): 95%
- remaining activity at 0.1 µM (EPHA2): 100%
- remaining activity at 0.1 µM (CLK1): 100%
- remaining activity at 0.1 µM (GCN2(Kin.Dom.2,S808G)): 97%
- remaining activity at 0.1 µM (KIT-autoinhibited): 94%
- remaining activity at 0.1 µM (MTOR): 67%
- remaining activity at 0.1 µM (PIK3CG): 100%
- remaining activity at 0.1 µM (NDR1): 100%
- remaining activity at 0.1 µM (CDK8): 98%
- remaining activity at 0.1 µM (PIK3CA(H1047L)): 71%
- remaining activity at 0.1 µM (BMPR1A): 94%
- remaining activity at 0.1 µM (KIT(V559D,V654A)): 100%
- remaining activity at 0.1 µM (TRKB): 94%
- remaining activity at 0.1 µM (CAMK2B): 92%
- remaining activity at 0.1 µM (PIK3CA(E542K)): 81%
- remaining activity at 0.1 µM [1]: 84%
- remaining activity at 0.1 µM (YANK2): 95%
- remaining activity at 0.1 µM (CAMK1B): 83%
- remaining activity at 0.1 µM (SNRK): 100%
- remaining activity at 0.1 µM (FGFR3): 100%
- remaining activity at 0.1 µM (STK35): 100%
- remaining activity at 0.1 µM (PRKD3): 100%
- remaining activity at 0.1 µM (JNK2): 92%
- remaining activity at 0.1 µM (SGK): 90%
- remaining activity at 0.1 µM (MEK3): 79%
- remaining activity at 0.1 µM (TAOK3): 85%
- remaining activity at 0.1 µM (PIK3C2G): 78%
- remaining activity at 0.1 µM (PRKCE): 68%

Source: US11767310B2, “Nicotinamide RIPK1 inhibitors” (AbbVie Inc., priority 2021, dated 2023)
